Read-outs that look alike come from different tables or passages of the source. Starred links: 1 amine or outer side, 2 acyl side, 3 side chain; linkers in the order of their positions; H or OH if unused. Positions of bridges follow the written chain, without caps; N, C: chain ends. Non-standard residues stand in square brackets, D forms with d. Residues, ends and D or L forms follow the SMILES beside them. hTyr = N[C@@H](CCc1ccc(O)cc1)C(=O)O; Pen = CC(C)(S)[C@H](N)C(=O)O; hCys = N[C@@H](CCS)C(=O)O; hSer = N[C@@H](CCO)C(=O)O; Dab = NCC[C@H](N)C(=O)O; Dap = NC[C@H](N)C(=O)O; X1 = O=C(C[*:2])[*:1]; X2 = O=C(C[*:1])[*:2]
Legend:
human integrin αvβ5 = human integrin αvβ5 (Homo sapiens, UniProt P06756+P18084); assay: Evaluation of integrin binding property (surface plasmon resonance, Biacore 3000, immobilized cyclic peptide)
Sequence of human integrin αvβ5 (P06756 31-1048): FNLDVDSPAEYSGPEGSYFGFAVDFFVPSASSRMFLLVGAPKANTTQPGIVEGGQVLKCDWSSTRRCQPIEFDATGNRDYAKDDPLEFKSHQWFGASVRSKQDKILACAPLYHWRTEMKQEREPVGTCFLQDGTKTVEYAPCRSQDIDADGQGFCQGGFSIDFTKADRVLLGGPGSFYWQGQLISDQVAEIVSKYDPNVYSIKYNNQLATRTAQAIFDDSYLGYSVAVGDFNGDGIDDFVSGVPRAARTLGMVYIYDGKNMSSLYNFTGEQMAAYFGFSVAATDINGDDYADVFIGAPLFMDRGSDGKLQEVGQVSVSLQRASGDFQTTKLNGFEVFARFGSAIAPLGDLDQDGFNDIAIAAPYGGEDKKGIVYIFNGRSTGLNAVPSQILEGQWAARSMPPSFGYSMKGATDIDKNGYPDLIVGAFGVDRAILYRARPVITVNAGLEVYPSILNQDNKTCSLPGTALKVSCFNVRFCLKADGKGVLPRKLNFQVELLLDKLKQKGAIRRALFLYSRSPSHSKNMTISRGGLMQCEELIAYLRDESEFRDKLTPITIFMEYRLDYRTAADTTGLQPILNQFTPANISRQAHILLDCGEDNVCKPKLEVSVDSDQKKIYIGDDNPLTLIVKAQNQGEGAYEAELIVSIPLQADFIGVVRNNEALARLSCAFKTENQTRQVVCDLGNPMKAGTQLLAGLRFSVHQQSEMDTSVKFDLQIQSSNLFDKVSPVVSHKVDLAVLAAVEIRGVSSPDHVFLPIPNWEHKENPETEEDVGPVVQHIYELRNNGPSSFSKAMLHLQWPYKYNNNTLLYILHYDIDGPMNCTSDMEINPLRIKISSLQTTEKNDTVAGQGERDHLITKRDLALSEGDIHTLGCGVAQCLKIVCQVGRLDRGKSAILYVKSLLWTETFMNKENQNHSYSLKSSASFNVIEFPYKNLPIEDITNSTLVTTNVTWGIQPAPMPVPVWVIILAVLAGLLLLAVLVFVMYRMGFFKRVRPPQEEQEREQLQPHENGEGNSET
Sequence of human integrin αvβ5 (P18084 24-799): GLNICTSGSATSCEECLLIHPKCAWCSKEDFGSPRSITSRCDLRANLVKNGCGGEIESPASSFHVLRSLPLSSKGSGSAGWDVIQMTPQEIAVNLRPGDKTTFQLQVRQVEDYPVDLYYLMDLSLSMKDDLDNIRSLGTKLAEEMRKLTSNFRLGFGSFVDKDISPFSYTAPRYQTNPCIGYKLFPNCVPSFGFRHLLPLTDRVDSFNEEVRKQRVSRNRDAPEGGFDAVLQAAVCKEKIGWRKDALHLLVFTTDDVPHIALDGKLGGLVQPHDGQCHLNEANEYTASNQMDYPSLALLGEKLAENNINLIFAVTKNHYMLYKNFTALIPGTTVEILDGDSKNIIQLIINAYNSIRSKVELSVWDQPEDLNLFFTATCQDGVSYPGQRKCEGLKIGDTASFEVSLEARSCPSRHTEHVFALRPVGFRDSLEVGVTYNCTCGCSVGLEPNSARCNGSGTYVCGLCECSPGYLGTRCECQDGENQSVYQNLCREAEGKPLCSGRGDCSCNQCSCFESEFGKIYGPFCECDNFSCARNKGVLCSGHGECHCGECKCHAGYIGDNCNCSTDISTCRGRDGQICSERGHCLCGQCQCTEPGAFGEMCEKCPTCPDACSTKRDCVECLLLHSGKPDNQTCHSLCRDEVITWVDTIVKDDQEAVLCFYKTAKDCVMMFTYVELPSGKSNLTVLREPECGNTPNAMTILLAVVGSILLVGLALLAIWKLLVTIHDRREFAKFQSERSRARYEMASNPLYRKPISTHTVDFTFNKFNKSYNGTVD
Protocol: A commercially available CMS (a carboxymethyl dextran introduction type, manufactured by GE Healthcare) sensor chip was set in Biacore 3000, which is a surface plasmon resonance apparatus manufactured by GE Healthcare, the sensor was stabilized at a flow rate of 10 μL/min of a HEPES (4-(2-hydroxyethyl)-1-piperazineethanesulfonic acid) buffer solution (20 mM HEPES-HCl, 150 mM NaCl, pH 7.4) for surface plasmon resonance (SPR), and 70 μL of a mixed aqueous solution of 0.2 M 1-(3-dimethylaminopropyl)-3-ethylcarbodiimide (EDC) and 0.04 M N-hydroxysuccinimide (NHS) was added thereto. Here, the concentration unit M represents mol/L, and the same applies hereinafter. Then, 20 μL of the sample solution of each of the above cyclic peptides diluted to 0.2 g/L with the HEPES buffer solution was supplied to the sensor chip, blocking treatment was subsequently carried out with an ethanolamine solution, and washing was carried out with a sodium hydroxide aqueous solution, whereby immobilization was carried out. However, only for the cyclic peptides 125, 126, and 127, in which the number of lysine residues having an amino group as the immobilizing functional group was zero, the amount of the sample solution to be supplied to the sensor chip was set to 500 μL instead of 20 μL. Further, 70 μL of the mixed aqueous solution of 0.2 M EDC and 0.04 M NHS was added to another flow channel of the same sensor chip without immobilizing the sample, and then blocking treatment and washing treatment were carried out. Hereinafter, the obtained immobilization-treated sensor chip is referred to as an “immobilization-treated sensor chip A”.
After adding human integrin αvβ5 for 10 minutes at 25° C., which was diluted to 30 nM using a HEPES buffer solution to which magnesium chloride was added to 5 mM, in each flow channel of the immobilization-treated sensor chip A prepared in (1) above, the same HEPES buffer solution (containing 5 mM magnesium chloride) was allowed to flow as a running buffer for 30 minutes, and measurement was carried out with Biacore 3000. Then, a regeneration treatment of removing human integrin αvβ5 was carried out by allowing a 0.5 M EDTA aqueous solution to flow through each flow channel for 10 minutes. Further, the above-described measurement process consisting of adding integrin for 10 minutes, allowing a running buffer to flow for 30 minutes, carrying out measurement with Biacore 3000, and carrying out regeneration treatment with 0.5 M EDTA aqueous solution was carried out in the same manner for 100 nM human integrin αvβ5, 300 nM human integrin αvβ5, and 1,000 nM human integrin αvβ5. Dissociation constant between the cyclic peptide and human integrin αvβ5 was calculated from the difference between the value measured by Biacore 3000 in the flow channel immobilized with the cyclic peptide and the value measured by Biacore 3000 in the flow channel unimmobilized with the cyclic peptide, in a case where each concentration of human integrin αvβ5 was allowed to flow, and the integrin binding property was evaluated according to the following evaluation standards. It is preferable that the evaluation result satisfies the evaluation standard A, B, or C.

[1] = Evaluation of molecule stability (alkali treatment, residual rate by LC/MS); type: physicochemical; details: for Performance evaluation: Stability (residual rate of cyclic peptide after alkali treatment): 500 μM peptide aqueous solution plus equivalent of 1 M sodium hydroxide, 15° C., 3 hours, LC/MS peak area
Protocol: The molecule stability of the cyclic peptide was evaluated by analyzing the alkali-treated cyclic peptide aqueous solution by liquid chromatography mass spectroscopy (LC/MS).
The alkali treatment was carried out by the following method. A 500 μM cyclic peptide aqueous solution was prepared, an equivalent of 1 M sodium hydroxide aqueous solution was added to this aqueous solution, and the resultant mixture was incubated at 15° C. for 3 hours to obtain an alkali-treated cyclic peptide aqueous solution. The cyclic peptide residual rate was calculated by setting the total area of all peaks of the cyclic peptide before alkali treatment in LC/MS to 100% and determining the proportion of the total area of all peaks in LC/MS of the alkali-treated cyclic peptide aqueous solution, and the molecule stability was evaluated according to the following evaluation standards. It is preferable that the evaluation result satisfies the evaluation standard A, B, or C.
The conditions of the LC/MS used for the evaluation of molecule stability were set as follows. • LC apparatus: Prominence series (pump, column oven, autosampler, detector) (manufactured by Shimadzu Corporation) • MS detector: LC/MS2010EV (manufactured by Shimadzu Corporation) • Column: Cadenza CD-C18, inner diameter 2.0 mm×length 250 mm, particle size: 3 μm (manufactured by Imtakt Corporation) • Eluent A: a solution (pH 3) containing 10 mM ammonium formate as a solute, where the solvent is 100% water. • Eluent B: a solution (pH 3) containing 10 mM ammonium formate as a solute, where the solvent is acetonitrile/water=90/10. • Flow rate: 0.2 mL/min • Injection volume: 4 μL • Gradient: 0% to 30%: Eluent B (0 to 30 minutes), 100%: Eluent B (30 to 40 minutes), 0%: Eluent B (40 to 60 minutes) • Column temperature: 45° C. • Ionization method: electrospray ionization (ESI) positive, ESI negative

[2] = SPR, 25° C., HEPES buffer with 5 mM magnesium chloride, integrin 30-1,000 nM, read-out: Performance evaluation: Binding activity (dissociation constant between the cyclic peptide and human integrin αvβ5)

Row | Structure (SMILES) | Kd (human integrin αvβ5; [2]) | Performance evaluation: Stability (residual rate of cyclic peptide after alkali treatment) [1] | Kd (human integrin αvβ5; surface plasmon resonance, immobilized cyclic peptide, human integrin αvβ5, read-out: Binding activity (integrin binding property, dissociation constant rank)) | Stability (molecule stability, residual rate of the cyclic peptide rank) ([1]; alkali treatment, residual rate by LC/MS)
1 | CC[C@H](C)[C@@H]1NC(=O)[C@@H](NC(=O)[C@H](C)NC(=O)[C@H](CCCCN)NC(=O)[C@H](CCCCN)NC(=O)[C@@H](N)CCCCN)CCSCC(=O)NCC[C@@H](C(=O)N[C@@H](C)C(=O)O)NC(=O)[C@H](CCCNC(=N)N)NC(=O)[C@H](Cc2ccc(O)cc2)NC(=O)[C@H]([C@@H](C)O)NC(=O)[C@H](CC(=O)O)NC(=O)CNC(=O)[C@H](CCCNC(=N)N)NC(=O)[C@@H]2CCCN2C1=O [Cyclic peptide 81, KKKA-(Hcy)-IPRGDTYR(Dab(acetyl))A] (H-KKKA[hCys]IPRGDTYR[Dab]A-OH; linker 5-14 via X2) | 50 to 100 nM | A (The residual rate of the cyclic peptide is 70% or more.) | – | –
2 | C[C@H](NC(=O)[C@@H]1CCNC(=O)CSCC[C@H](NC(=O)CNC(=O)[C@H](CCCCN)NC(=O)[C@H](CCCCN)NC(=O)[C@@H](N)CCCCN)C(=O)N[C@@H](CCc2ccc(O)cc2)C(=O)N2CCC[C@H]2C(=O)N[C@@H](CCCNC(=N)N)C(=O)NCC(=O)N[C@@H](CC(=O)O)C(=O)N[C@@H]([C@@H](C)O)C(=O)N[C@@H](Cc2ccccc2)C(=O)N[C@@H](CCCNC(=N)N)C(=O)N1)C(=O)O [Cyclic peptide 68, KKKG-(Hcy)-(HmY)-PRGDTFR(Dab(acetyl))A] (H-KKKG[hCys][hTyr]PRGDTFR[Dab]A-OH; linker 5-14 via X2) | – | A (The residual rate of the cyclic peptide is 70% or more.) | – | –
3 | CC(C)[C@@H]1NC(=O)[C@@H](NC(=O)[C@H](C)NC(=O)[C@H](CCCCN)NC(=O)[C@H](CCCCN)NC(=O)[C@@H](N)CCCCN)CCSCC(=O)NCC[C@@H](C(=O)N[C@@H](CC(=O)O)C(=O)O)NC(=O)[C@H](CCCNC(=N)N)NC(=O)[C@H](Cc2ccc(O)cc2)NC(=O)[C@H](CC(N)=O)NC(=O)[C@H](CC(=O)O)NC(=O)CNC(=O)[C@H](CCCNC(=N)N)NC(=O)[C@@H]2CCCN2C1=O [Cyclic peptide 29, KKKA-(Hcy)-VPRGDNYR(Dab(acetyl))D] (H-KKKA[hCys]VPRGDNYR[Dab]D-OH; linker 5-14 via X2) | 50 to 100 nM | A (The residual rate of the cyclic peptide is 70% or more.) | – | –
4 | C[C@H](NC(=O)[C@H](CCCCN)NC(=O)[C@H](CCCCN)NC(=O)[C@@H](N)CCCCN)C(=O)N[C@H]1CNC(=O)CSCC[C@@H](C(=O)N[C@@H](CC(=O)O)C(=O)O)NC(=O)[C@H](CCCNC(=N)N)NC(=O)[C@H](Cc2ccc(O)cc2)NC(=O)[C@H](CC(N)=O)NC(=O)[C@H](CC(=O)O)NC(=O)CNC(=O)[C@H](CCCNC(=N)N)NC(=O)[C@@H]2CCCN2C(=O)[C@H](CCC(=O)O)NC1=O [Cyclic peptide 48, KKKA(Dap(acetyl))EPRGDNYR-(Hcy)-D] (H-KKKA[Dap]EPRGDNYR[hCys]D-OH; linker 5-14 via X1) | < 50 nM | B (The residual rate of the cyclic peptide is 50% or more and less than 70%.) | – | –
5 | CC[C@H](C)[C@@H]1NC(=O)[C@@H](NC(=O)[C@H](CCCCN)NC(=O)[C@H](CCCCN)NC(=O)[C@@H](N)CCCCN)CCSCC(=O)NCC[C@@H](C(=O)O)NC(=O)[C@H](CCCNC(=N)N)NC(=O)[C@H](Cc2ccccc2)NC(=O)[C@H]([C@@H](C)O)NC(=O)[C@H](CC(=O)O)NC(=O)CNC(=O)[C@H](CCCNC(=N)N)NC(=O)[C@@H]2CCCN2C1=O [Cyclic peptide 61, KKK-(Hcy)-IPRGDTFR(Dab(acetyl))] (H-KKK[hCys]IPRGDTFR[Dab]-OH; linker 4-13 via X2) | < 50 nM | A (The residual rate of the cyclic peptide is 70% or more.) | – | –
6 | N=C(N)NCCC[C@@H]1NC(=O)[C@H](Cc2ccc(O)cc2)NC(=O)[C@H](CC(N)=O)NC(=O)[C@H](CC(=O)O)NC(=O)CNC(=O)[C@H](CCCNC(=N)N)NC(=O)[C@@H]2CCCN2C(=O)[C@H](CCC(=O)O)NC(=O)[C@@H](NC(=O)[C@H](CCCCN)NC(=O)[C@H](CCCCN)NC(=O)[C@@H](N)CCCCN)CCSCC(=O)NCC[C@@H](C(N)=O)NC1=O [Cyclic peptide 49, KKK-(Hcy)-EPRGDNYR(Dab(acetyl))] (H-KKK[hCys]EPRGDNYR[Dab]-NH2; linker 4-13 via X2) | 50 to 100 nM | A (The residual rate of the cyclic peptide is 70% or more.) | – | –
7 | CC[C@H](C)[C@@H]1NC(=O)[C@@H](NC(=O)[C@H](CCCCN)NC(=O)[C@H](CCCCN)NC(=O)[C@@H](N)CCCCN)CCSCC(=O)NCC[C@@H](C(=O)O)NC(=O)[C@H](Cc2ccccc2)NC(=O)[C@H](C(C)C)NC(=O)[C@H](CC(=O)O)NC(=O)CNC(=O)[C@H](CCCNC(=N)N)NC(=O)[C@@H]2CCCN2C1=O [Cyclic peptide 65, KKK-(Hcy)-IPRGDVF(Dab(acetyl))] (H-KKK[hCys]IPRGDVF[Dab]-OH; linker 4-12 via X2) | 50 to 100 nM | A (The residual rate of the cyclic peptide is 70% or more.) | – | –
8 | CC[C@H](C)[C@@H]1NC(=O)[C@@H](NC(=O)CNC(=O)[C@H](CCCCN)NC(=O)[C@H](CCCCN)NC(=O)[C@@H](N)CCCCN)C(C)(C)SCC(=O)NCC[C@@H](C(=O)N[C@@H](C)C(=O)O)NC(=O)[C@H](CCCNC(=N)N)NC(=O)[C@H](Cc2ccccc2)NC(=O)[C@H]([C@@H](C)O)NC(=O)[C@H](CC(=O)O)NC(=O)CNC(=O)[C@H](CCCNC(=N)N)NC(=O)[C@@H]2CCCN2C1=O [Cyclic peptide 129, KKKG-(Pen)-IPRGDTFR(Dab(acetyl))A] (H-KKKG[Pen]IPRGDTFR[Dab]A-OH; linker 5-14 via X2) | – | – | 50 to 100 nM | A (The residual rate of the cyclic peptide is 70% or more.)
9 | CC[C@H](C)[C@@H]1NC(=O)[C@@H](NC(=O)CNC(=O)[C@H](CCCCN)NC(=O)[C@H](CCCCN)NC(=O)[C@@H](N)CCCCN)CCSCC(=O)NCC[C@@H](C(=O)N[C@@H](C)C(=O)O)NC(=O)[C@H](CCCNC(=N)N)NC(=O)[C@H](Cc2ccccc2)NC(=O)[C@H](CCO)NC(=O)[C@H](CC(=O)O)NC(=O)CNC(=O)[C@H](CCCNC(=N)N)NC(=O)[C@@H]2CCCN2C1=O [Cyclic peptide 73, KKKG-(Hcy)-IPRGD-(HmS)-FR(Dab(acetyl))A] (H-KKKG[hCys]IPRGD[hSer]FR[Dab]A-OH; linker 5-14 via X2) | – | A (The residual rate of the cyclic peptide is 70% or more.) | – | –
